Reference: patent publication US10668079B2, “Composition composed of ceftriaxone sodium and sulbactum sodium” (XIANGBEI WELMAN PHARMACEUTICAL CO., LTD., priority 2016, dated 2020)
Counter-ions that a name gives are not always drawn.

How the values were obtained:
Assay in all cases: In vivo antibacterial test (animal protection test, septicemia mouse model)
[1] = tested on: ATCC43069 (Neisseria gonorrhoeae); settings: ATCC43069, sc, ICR mice
Experimental: (§1) The stability test samples in test example 1 were sampled at 0th month and subjected to in vivo antibacterial test; and the stability test samples were sampled at 30th month again, and subjected to in vivo antibacterial test. The in vivo antibacterial tests were performed according to the following method.
(§2) Test Samples: Compositions I to VIII, Sterile Powder for Injection I, Sterile Powder for Injection II, Sterile Powder for Injection IV, Lyophilized Powder for Injection I, Lyophilized Powder for Injection II, Lyophilized Powder for Injection A, Sterile Powder for Injection A and Sterile Powder for Injection B, all of which were obtained from the test example 1 at 0th and 30th month; and control drugs: ceftriaxone sodium, levofloxacin hydrochloride, azithromycin, doxycycline hydrochloride and spectinomycin hydrochloride, wherein, a batch of the control drugs were purchased at 0th month of the stability test so as to match with the test samples at 0th month, and another batch of control drugs were purchased at 30th month of the stability test so as to match with the test samples at 30th month, and the time when the two batches were purchased was within one month from the date of their production.
(§3) Animals: ICR mice weighed 18-22 g, half male and half female.
(§4) Strains: ATCC700603 (Klebsiella pneumoniae), ATCC43069 (Neisseria gonorrhoeae), Q-R (quinolone-resistant Neisseria gonorrhoeae), T-R (tetracycline-resistant Neisseria gonorrhoeae), PP-R (β-lactam-resistant Neisseria gonorrhoeae), MAC-R (macrolide-resistant Neisseria gonorrhoeae), SPE-R (spectinomycin-resistant Neisseria gonorrhoeae) and QS-R (ceftriaxone-resistant Neisseria gonorrhoeae), wherein, ATCC700603, and ATCC43069 were purchased from ATCC; QS-R was prepared by in vitro inducing Neisseria gonorrhoeae, which was sensitive to ceftriaxone, with a subinhibitory concentration of ceftriaxone, culturing at 36° C., 5% CO2, passaging once every 24 hours, and then transferring to a higher concentration of ceftriaxone on GC medium until the strain was resistant to ceftriaxone; and other strains were clinical isolates.
(§5) Aseptic thoracotomy was performed timely on the mice died of infection, the heart blood or intracavity effusion was taken and evenly coated on corresponding agar plates, and incubated for 18 hours at 37° C. […] The obtained strain was used to infect mice again.
(§6) After infection, the number of dead mice was recorded. The minimum dose causing 100% death of mice was 1 MLD, and was used as the dose in animal protection experiments. The bacterial concentration, which was one log lower than 1 MLD and infected the animals without mortality, was named 0.1 MLD. In experiments, a bacteria concentration of 1 MLD was used as the positive control for the infection experiments; and a bacteria concentration of 0.1 MLD was used as the negative control for the infection. In both positive and negative control groups, only the bacteria were administrated and no antibiotic treatment was provided. The mortality of the positive group should be 70% or more, and the mortality of the negative group should be 30% or less.
(§7) When the administration dosage was investigated first, there may be relatively great differences between the dose concentrations of the groups. When the range of the administration dosage was determined, it may be further investigated by reducing the differences until the suitable administration dosage (that is, for the group administrated with the highest concentration, 70% or more infected animals survived; and for the group administrated with the lowest concentration, no less than 70% of infected animals died) was found.

[2] = tested on: MAC-R (macrolide-resistant Neisseria gonorrhoeae); settings: sc, strain MAC-R, ICR mice
Experimental: as §1, §2, §3, §4, §5, §6, §7

[3] = tested on: PP-R (β-lactam-resistant Neisseria gonorrhoeae); settings: sc, strain PP-R, ICR mice
Experimental: as §1, §2, §3, §4, §5, §6, §7

[4] = tested on: Q-R (quinolone-resistant Neisseria gonorrhoeae); settings: sc, strain Q-R, ICR mice
Experimental: as §1, §2, §3, §4, §5, §6, §7

[5] = tested on: QS-R (ceftriaxone-resistant Neisseria gonorrhoeae); settings: sc, strain QS-R, ICR mice
Experimental: as §1, §2, §3, §4, §5, §6, §7

[6] = tested on: SPE-R (spectinomycin-resistant Neisseria gonorrhoeae); settings: sc, strain SPE-R, ICR mice
Experimental: as §1, §2, §3, §4, §5, §6, §7

[7] = tested on: T-R (tetracycline-resistant Neisseria gonorrhoeae); settings: sc, strain T-R, ICR mice
Experimental: as §1, §2, §3, §4, §5, §6, §7

[8] = tested on: ATCC700603 (Klebsiella pneumoniae); settings: ATCC700603, sc, ICR mice
Experimental: as §1, §2, §3, §4, §5, §6, §7

[9] = strain ATCC 43069, samples at 0th month of the stability test, subcutaneous immediately and after 6 hours, 7 days observation
[10] = strain ATCC 43069, samples at 30th month of the stability test (control drugs: batch purchased at 30th month), subcutaneous
[11] = samples at 0th month of the stability test, subcutaneous immediately and after 6 hours, 7 days observation
[12] = samples at 30th month of the stability test (control drugs: batch purchased at 30th month), subcutaneous

Compound	ED50 [1, 9] [mg/kg]	ED50 [1, 10] [mg/kg]	ED50 [2, 11] [mg/kg]	ED50 [2, 12] [mg/kg]	ED50 [3, 11] [mg/kg]	ED50 [3, 12] [mg/kg]	ED50 [4, 11] [mg/kg]	ED50 [4, 12] [mg/kg]	ED50 [5, 11] [mg/kg]	ED50 [5, 12] [mg/kg]	ED50 [6, 11] [mg/kg]	ED50 [6, 12] [mg/kg]	ED50 [7, 11] [mg/kg]	ED50 [7, 12] [mg/kg]	ED50 ([8]; strain ATCC 700603, samples at 0th month of the stability test, subcutaneous immediately and after 6 hours, 7 days observation) [mg/kg]	ED50 ([8]; strain ATCC 700603, samples at 30th month of the stability test (control drugs: batch purchased at 30th month), subcutaneous) [mg/kg]
CC[C@H]1OC(=O)[C@H](C)[C@@H](O[C@H]2C[C@@](C)(OC)[C@@H](O)[C@H](C)O2)[C@H](C)[C@@H](O[C@@H]2O[C@H](C)C[C@H](N(C)C)[C@H]2O)[C@](C)(O)C[C@@H](C)CN(C)[C@H](C)[C@@H](O)[C@]1(C)O [Azithromycin, azithromycin]	24	31	487	497	49	55	43	40	63	69	59	65	62	59		
CO/N=C(\C(=O)N[C@@H]1C(=O)N2C(C(=O)O)=C(CSc3nc(=O)c(=O)[nH]n3C)CS[C@H]12)c1csc(N)n1 [Ceftriaxone Sodium, ceftriaxone sodium]	16	21	34	37	208	224	31	30	337	373	52	66	46	57	35	37
C[C@H]1c2cccc(O)c2C(=O)C2=C(O)[C@]3(O)C(=O)C(C(N)=O)=C(O)[C@@H](N(C)C)[C@@H]3[C@@H](O)[C@@H]21 [Doxycycline Hydrochloride, doxycycline hydrochloride]	37	32	58	62	52	47	55	51	105	99	52	51	456	432		
C[C@H]1COc2c(N3CCN(C)CC3)c(F)cc3c(=O)c(C(=O)O)cn1c23 [Levofloxacin Hydrochloride, levofloxacin hydrochloride]	25	30	36	41	37	42	573	564	72	82	67	72	48	43		
CN[C@@H]1[C@H](O)[C@H](NC)[C@H]2O[C@@]3(O)C(=O)C[C@@H](C)O[C@H]3O[C@@H]2[C@H]1O [Spectinomycin Hydrochloride, spectinomycin hydrochloride]	19	22	38	42	56	67	40	42	41	56	621	571	61	68		
